BigSolDB 2.1

Question: For `CO/N=C(\C(=O)Sc1nc2ccccc2s1)c1csc(N)n1`, which solubility (mole fraction) (in 1,2-dichloroethane, 277.83 K) is on record?
Answer: 0.000358

Question: What about the solubility (mole fraction) (in 1,2-dichloroethane, 282.77 K) of the same molecule?
Answer: 0.000458

Question: And the solubility (mole fraction) (in 1,2-dichloroethane, 287.63 K)?
Answer: 0.000619

Question: And the solubility (mole fraction) (in 1,2-dichloroethane, 292.84 K)?
Answer: 0.000876

Question: And the solubility (mole fraction) (in 1,2-dichloroethane, 297.85 K)?
Answer: 0.00118

Question: What about the solubility (mole fraction) (in 1,2-dichloroethane, 302.64 K) of the same molecule?
Answer: 0.00154

Question: What about the solubility (mole fraction) (in THF, 278.4 K) of the same molecule?
Answer: 0.0243

Question: What about the solubility (mole fraction) (in THF, 283.75 K) of the same molecule?
Answer: 0.0259

Question: What about the solubility (mole fraction) (in THF, 288.8 K) of the same molecule?
Answer: 0.028

Question: And the solubility (mole fraction) (in THF, 293.25 K)?
Answer: 0.0311

Question: And the solubility (mole fraction) (in THF, 298.06 K)?
Answer: 0.0352

Question: And the solubility (mole fraction) (in THF, 302.95 K)?
Answer: 0.0397

Question: What about the solubility (mole fraction) (in acetone, 278.32 K) of the same molecule?
Answer: 0.00245

Question: What about the solubility (mole fraction) (in acetone, 283.31 K) of the same molecule?
Answer: 0.00286

Question: What about the solubility (mole fraction) (in acetone, 288.15 K) of the same molecule?
Answer: 0.00334

Question: And the solubility (mole fraction) (in acetone, 293.2 K)?
Answer: 0.0039

Question: What about the solubility (mole fraction) (in acetone, 298.54 K) of the same molecule?
Answer: 0.00472

Question: And the solubility (mole fraction) (in acetone, 303.28 K)?
Answer: 0.0057

Question: What about the solubility (mole fraction) (in acetonitrile, 279.45 K) of the same molecule?
Answer: 0.000216

Question: And the solubility (mole fraction) (in acetonitrile, 283.46 K)?
Answer: 0.000262

Question: And the solubility (mole fraction) (in acetonitrile, 288.45 K)?
Answer: 0.000342

Question: What about the solubility (mole fraction) (in acetonitrile, 292.98 K) of the same molecule?
Answer: 0.000451

Question: And the solubility (mole fraction) (in acetonitrile, 297.47 K)?
Answer: 0.000581

Question: What about the solubility (mole fraction) (in acetonitrile, 302.45 K) of the same molecule?
Answer: 0.000761

Question: And the solubility (mole fraction) (in dichloromethane, 278.6 K)?
Answer: 0.000719

Question: What about the solubility (mole fraction) (in dichloromethane, 283.64 K) of the same molecule?
Answer: 0.000967

Question: And the solubility (mole fraction) (in dichloromethane, 288.46 K)?
Answer: 0.00128

Question: And the solubility (mole fraction) (in dichloromethane, 294.03 K)?
Answer: 0.00171

Question: And the solubility (mole fraction) (in dichloromethane, 298.71 K)?
Answer: 0.00217

Question: What about the solubility (mole fraction) (in dichloromethane, 303.44 K) of the same molecule?
Answer: 0.00267
